Measurements from patent EP0732399A2 (CEPHALON, INC., priority 1990, dated 1991).
Several values for one entry are separate records, joined by “and”; a condition that tells them apart may be missing. Equal entries are not always repeated. Entries after “also recorded” stand apart in the source; their conditions may differ. Where two headings read alike, the source gives them in different places. One block for each compound: values may come before it. Square brackets hold non-standard residues; d marks the D form. Peptide text beside a SMILES is read from it. * marks the point of attachment. Sta = CC(C)C[C@H](N)[C@@H](O)CC(=O)O; Isovaleryl = CC(C)CC(=O)*; MeOSuc = COC(=O)CCC(=O)*; CH2Cl = ClC*

Key:
[1] = high salt extract preparation (1 M MgCl2) of human brain samples
[2] = molecular target: T1, chymase (Rattus norvegicus, UniProt P09650); experiment: Inhibition of purified brain chymase (pNa substrate hydrolysis); format: biochemical
T1 construct: Starting from 18g rat brain, approximately 10µg homogeneous chymase was obtained; from tissue; host or cells: rat forebrain (5-7 day old pups)
T1 sequence (P09650 21-260): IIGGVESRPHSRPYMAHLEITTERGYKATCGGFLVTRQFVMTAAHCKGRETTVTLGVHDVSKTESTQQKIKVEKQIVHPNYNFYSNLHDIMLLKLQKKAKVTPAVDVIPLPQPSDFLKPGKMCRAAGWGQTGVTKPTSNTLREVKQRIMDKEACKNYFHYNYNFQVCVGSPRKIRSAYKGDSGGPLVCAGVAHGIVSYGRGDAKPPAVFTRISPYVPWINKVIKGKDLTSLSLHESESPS
Method: (§1) During the various protease purification steps, protease activity of all fractions was measured using chromogenic or fluorogenic peptide analogs as substrates. Other methods are available, known to those skilled in the art. One specific example of an activity measurement is described here. Protease activity assays were performed in 96 well microtiter plates, in a total volume of 0.2 mls. Substrates were prepared as 10-20X concentrated stock solutions in DMSO. Therefore, each reaction contained 5-10% DMSO. Reactions were initiated by addition of protease-containing samples to wells already containing substrates, and were maintained at 37°C. Control wells received either protease without substrate, or substrate without protease. The release of reporter moities by proteolytic cleavage was followed as a function of time by either spectrophotometry (e.g., for pNa substrates, change in absorbance with time at 405 nm) or fluorimetry (e.g., for AMC substrates, change in fluorescence with time using excitation at 390 nm and emission at 460 nm). Maximum velocity of reactions was determined while substrate hydrolysis increased linearly as a function of time.

[3] = system: cathepsin G; experiment: cathepsin G; settings: 37°C
[4] = system: chymotrypsin; experiment: chymotrypsin; settings: 37°C
[5] = system: chymase; experiment: purified rat brain chymase; settings: 37°C
[6] = molecular target: T1, chymase; experiment: Substrate cleavage by brain chymase; format: biochemical
Method: as §1

[7] = molecular target: T2, multicatalytic protease (Homo sapiens, UniProt P28074); experiment: Substrate cleavage by multicatalytic protease; format: biochemical
T2 construct: Human cerebral cortex (courtesy National Neurological Research Bank, Los Angeles, CA.) was obtained at autopsy; from tissue; host or cells: human cerebral cortex, post mortem
Method: as §1
Human cerebral cortex (courtesy National Neurological Research Bank, Los Angeles, CA.) was obtained at autopsy and stored at -70°C until use. All procedures were conducted at 4 °C unless noted otherwise. […]

[8] = molecular target: T3, cathepsin G (Homo sapiens, UniProt P08311); experiment: Substrate cleavage by cathepsin G; format: biochemical
T3 sequence (P08311 21-255): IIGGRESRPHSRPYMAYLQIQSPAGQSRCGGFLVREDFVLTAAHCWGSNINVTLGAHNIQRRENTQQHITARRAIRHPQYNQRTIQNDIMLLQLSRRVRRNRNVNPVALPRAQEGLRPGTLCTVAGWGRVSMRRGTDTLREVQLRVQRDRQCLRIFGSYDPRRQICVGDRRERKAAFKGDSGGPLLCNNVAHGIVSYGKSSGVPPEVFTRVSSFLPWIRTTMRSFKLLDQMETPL
Method: as §1
(§2) Contrary to expectation, not all chymotrypsin-like proteases were able to cleave MeOSuc-Glu-Val-Lys-Met-pNa (Figure 6; EVKM using the one letter amino acid code). […]

[9] = system: chymotrypsin; experiment: Substrate cleavage by chymotrypsin; format: biochemical
Method: as §1, §2

[10] = molecular target: T4, human brain chymase (Homo sapiens, UniProt P23946)
T4 sequence (P23946 22-247): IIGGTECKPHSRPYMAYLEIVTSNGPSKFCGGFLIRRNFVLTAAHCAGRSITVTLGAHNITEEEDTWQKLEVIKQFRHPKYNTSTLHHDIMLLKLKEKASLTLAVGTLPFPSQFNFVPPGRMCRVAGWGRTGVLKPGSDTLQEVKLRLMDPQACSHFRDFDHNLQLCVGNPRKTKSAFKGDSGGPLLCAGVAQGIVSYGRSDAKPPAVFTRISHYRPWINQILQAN
Text: Samples obtained post-mortem from human cerebral cortex (courtesy of the National Neurological Research Bank) were fractionated as described above for preparation of rat brain chymase. […] Protease was further purified on a heparin-Sepharose column in a manner similar to purification of rat brain chymase. […] The enzyme bound to the column in 0.4 M NaCl and was eluted by increasing the NaCl concentration to 0.7-0.9 M.
Next, chymase was purified using a chymase inhibitor coupled to resin, lima bean trypsin inhibitor-agarose (Sigma, St. Louis, MO.). […] Chymase-containing fractions from the heparin eluate were pooled, concentrated to 10 ml, and loaded on a 1 ml bed volume of lima bean trypsin inhibitor-agarose. The column was washed with Hepes buffer containing 0.5 M NaCl (5 vol), then with water (5 vol). Chymase was eluted with 2 mM HCl, and was immediately neutralized with Tris-HCl (0.2 M final concentration, pH 8.0) containing 0.5 M NaCl.

[11] = system: human brain multicatalytic protease; format: biochemical; settings: qualitative, no concentration stated
Method: as §1
Human cerebral cortex (courtesy National Neurological Research Bank, Los Angeles, CA.) was obtained at autopsy and stored at -70°C until use. All procedures were conducted at 4 °C unless noted otherwise. […] Triton X-100 was added to 0.5%, the homogenate was stirred for 1 hr., then centrifuged at 40,000 x g for 1 hr. The supernatant, containing the multicatalytic protease, was dialyzed against 20 mM Tris-HCl (pH 8.0),1% glycerol. The following day, the dialysate was loaded on a column (150 ml bed volume) of DEAE-Sepharose Fast Flow (Pharmacia, Piscataway, N.J.) equilibrated in the dialysis buffer. Unbound material was removed with ∼300 mls dialysis buffer, then bound material was eluted with a linear NaCl gradient from 0 mM to 400 mM (1.5 liters total). Fractions of 15 ml were collected and assayed for multicatalytic protease activity (see below).

[12] = system: chymase; experiment: Purified chymase; settings: rat, room temperature, up to 48 hrs
[13] = system: cathepsin G; experiment: cathepsin G (Fig. 6 panel C); settings: 37°C
[14] = system: chymotrypsin; experiment: chymotrypsin (Fig. 6 panel B); settings: 37°C
[15] = system: chymase; experiment: human brain chymase purified from human cerebral cortex; settings: 37°C
[16] = system: multicatalytic protease; experiment: multicatalytic protease purified from human brain; settings: 37°C

Compound: COC(=O)CCC(=O)N[C@@H](CCC(=O)O)C(=O)N[C@H](C(=O)N[C@@H](CCCCN)C(=O)N[C@@H](Cc1ccccc1)C(=O)CCl)C(C)C (MeOSuc-EVKF-CH2Cl)
Ki ([2]; Ki): < 20 nM

Compound: MeOSuc-Ala-Ala-Pro-Met-pNa
cleaved bond [3]: Met-pNa | cleaved bond [4]: Met-pNa | cleaved bond [5]: Met-pNa

Compound: methoxysuccinyl-glutamyl-valyl-lysyl-methionine-p-nitroanili de [MeOSuc-Glu-Val-Lys-Met-pNa]
substrate cleavage by chymase [6]: readily degraded | substrate cleavage by multicatalytic protease [7]: readily degraded; also recorded: unusual ability to cleave | substrate cleavage by cathepsin G [8]: essentially without effect | substrate cleavage by chymotrypsin [9]: essentially without effect | substrate hydrolysis by human brain chymase [10]: hydrolyzed

Compound: CC(C)C[C@H](NC(=O)[C@@H](NC(=O)N[C@@H](Cc1ccccc1)C(=O)O)[C@@H]1CCN=C(N)N1)C(=O)N[C@H](C=O)Cc1ccccc1 [chymostatin]
inhibition of multicatalytic protease activity [11]: inhibition

Compound: CC(=O)N[C@@H](CC(C)C)C(=O)N[C@@H](CC(C)C)C(=O)N[C@H](C=O)CCCNC(=N)N [leupeptin]
inhibition of multicatalytic protease activity [11]: not

Compound: MeOSuc-Glu-Val-Lys-Met-pNa
cleaved bond [5]: Met-pNa | not cleaved [13]: essentially without effect | not cleaved [14]: essentially without effect | cleaved bond [15]: Met-pNa | cleaved bond [16]: Met-pNa

Compound: c1cnc2c(c1)ccc1cccnc12 [o-phenanthroline]
inhibition of multicatalytic protease activity [11]: not

Compound: COC(=O)CCC(=O)N[C@@H](CCC(=O)O)C(=O)N[C@H](C(=O)N[C@@H](CCCCN)C(=O)N[C@H](C=O)Cc1ccccc1)C(C)C [MeOSuc-Glu-Val-Lys-Phe-al, MeOSuc-Glu-Val-Lys-Phenylalaninal] (MeOSuc-EVKF-aldehyde)
Ki ([2]; read-out: Ki): < 20 nM and 15 nM

Compound: CC(C)CC(=O)N[C@H](C(=O)N[C@H](C(=O)N[C@@H](CC(C)C)[C@@H](O)CC(=O)N[C@@H](C)C(=O)N[C@@H](CC(C)C)[C@@H](O)CC(=O)O)C(C)C)C(C)C [pepstatin] (Isovaleryl-VV[Sta]A[Sta]-OH)
inhibition of multicatalytic protease activity [11]: not

Compound: O=S(=O)(F)Cc1ccccc1 [phenylmethylsulfonylfluoride]
inhibition of multicatalytic protease activity [11]: not

Next, values leading:

cleaved bond [1]: Phe-pNa
Compound: MeOSuc-Ala-Ala-Pro-Phe-pNa

cleaved bond [12]: Met596-Asp597, 45 minutes
Compound: Glu-Val-Lys-Met-Asp-Ala-Glu-Phe-Arg-His-Asp-Ser-Gly-Tyr-Glu-Val-His-His-Gln

cleaved bond [5]: Phe-pNa
Compound: MeOSuc-Glu-Val-Lys-Phe-pNa

cleaved bond [5]: Phe-pNa | cleaved bond [15]: Phe-pNa
Compound: Suc-Ala-Ala-Pro-Phe-pNa
